Reference: ChEMBL document CHEMBL3994622, “Design and synthesis of new RAF kinase-inhibiting antiproliferative quinoline derivatives. Part 2: Diarylurea derivatives” (Eur J Med Chem, 2017)

Columns and labels:
[1] = system: HL-60(TB); test: Growth inhibition of human HL-60(TB) cells incubated for 48 hrs by sulforhodamine B assay; type: functional; conditions: HL-60, 48 h
[2] = system: RPMI-8226; test: Growth inhibition of human RPMI8226 cells incubated for 48 hrs by sulforhodamine B assay; type: functional; conditions: RPMI-8226, 48 h
[3] = system: SR; test: Growth inhibition of human SR cells incubated for 48 hrs by sulforhodamine B assay; type: functional
[4] = system: EKVX; test: Growth inhibition of human EKVX cells incubated for 48 hrs by sulforhodamine B assay; type: functional
[5] = system: HOP-62; test: Growth inhibition of human HOP62 cells incubated for 48 hrs by sulforhodamine B assay; type: functional; conditions: HOP-62, 48 h
[6] = system: NCI-H226; test: Growth inhibition of human NCI-H226 cells incubated for 48 hrs by sulforhodamine B assay; type: functional; conditions: NCI-H226, 48 h
[7] = system: HCC 2998; test: Growth inhibition of human HCC2998 cells incubated for 48 hrs by sulforhodamine B assay; type: functional; conditions: HCC 2998, 48 h
[8] = system: HCT-15; test: Growth inhibition of human HCT15 cells incubated for 48 hrs by sulforhodamine B assay; type: functional; conditions: HCT-15, 48 h
[9] = system: HT-29; test: Growth inhibition of human HT-29 cells incubated for 48 hrs by sulforhodamine B assay; type: functional; conditions: HT-29, 48 h
[10] = system: KM12; test: Growth inhibition of human KM12 cells incubated for 48 hrs by sulforhodamine B assay; type: functional; conditions: KM12, 48 h
[11] = system: SNB-19; test: Growth inhibition of human SNB19 cells incubated for 48 hrs by sulforhodamine B assay; type: functional; conditions: SNB-19, 48 h
[12] = system: SNB-75; test: Growth inhibition of human SNB75 cells incubated for 48 hrs by sulforhodamine B assay; type: functional; conditions: SNB-75, 48 h
[13] = system: LOX IMVI; test: Growth inhibition of human LOXIMVI cells incubated for 48 hrs by sulforhodamine B assay; type: functional
[14] = system: Malme-3M; test: Growth inhibition of human MALME-3M cells incubated for 48 hrs by sulforhodamine B assay; type: functional
[15] = system: M14; test: Growth inhibition of human M14 cells incubated for 48 hrs by sulforhodamine B assay; type: functional; conditions: M14, 48 h
[16] = system: SK-MEL-2; test: Growth inhibition of human SK-MEL-2 cells incubated for 48 hrs by sulforhodamine B assay; type: functional; conditions: SK-MEL-2, 48 h
[17] = system: SK-MEL-5; test: Growth inhibition of human SK-MEL-5 cells incubated for 48 hrs by sulforhodamine B assay; type: functional; conditions: SK-MEL-5, 48 h
[18] = system: UACC-62; test: Growth inhibition of human UACC62 cells incubated for 48 hrs by sulforhodamine B assay; type: functional; conditions: UACC-62, 48 h
[19] = system: OVCAR-3; test: Growth inhibition of human OVCAR3 cells incubated for 48 hrs by sulforhodamine B assay; type: functional; conditions: OVCAR-3, 48 h
[20] = system: OVCAR-4; test: Growth inhibition of human OVCAR4 cells incubated for 48 hrs by sulforhodamine B assay; type: functional; conditions: OVCAR-4, 48 h
[21] = system: 786-0; test: Growth inhibition of human 786-0 cells incubated for 48 hrs by sulforhodamine B assay; type: functional; conditions: 786-0, 48 h
[22] = system: A498; test: Growth inhibition of human A498 cells incubated for 48 hrs by sulforhodamine B assay; type: functional; conditions: A498, 48 h
[23] = system: ACHN; test: Growth inhibition of human ACHN cells incubated for 48 hrs by sulforhodamine B assay; type: functional
[24] = system: RXF 393; test: Growth inhibition of human RXF393 cells incubated for 48 hrs by sulforhodamine B assay; type: functional; conditions: RXF 393, 48 h
[25] = system: SN12C; test: Growth inhibition of human SN12C cells incubated for 48 hrs by sulforhodamine B assay; type: functional
[26] = system: UO-31; test: Growth inhibition of human UO31 cells incubated for 48 hrs by sulforhodamine B assay; type: functional; conditions: UO-31, 48 h
[27] = system: PC-3; test: Growth inhibition of human PC3 cells incubated for 48 hrs by sulforhodamine B assay; type: functional; conditions: PC-3, 48 h
[28] = system: DU-145; test: Growth inhibition of human DU145 cells incubated for 48 hrs by sulforhodamine B assay; type: functional; conditions: DU-145, 48 h
[29] = system: Hs-578T; test: Growth inhibition of human Hs 578T cells incubated for 48 hrs by sulforhodamine B assay; type: functional
[30] = system: BT-549; test: Growth inhibition of human BT549 cells incubated for 48 hrs by sulforhodamine B assay; type: functional; conditions: BT-549, 48 h
[31] = system: T47D; test: Growth inhibition of human T47D cells incubated for 48 hrs by sulforhodamine B assay; type: functional
[32] = target: RAF proto-oncogene serine/threonine-protein kinase (Homo sapiens, UniProt P04049); test: Inhibition of human c-RAF at 10 uM using MEK1 as substrate in presence of [33P]ATP by Hotspot assay relative to control
[33] = read-out: LC50 (the source's name)

Sequence of RAF proto-oncogene serine/threonine-protein kinase (P04049 whole entry): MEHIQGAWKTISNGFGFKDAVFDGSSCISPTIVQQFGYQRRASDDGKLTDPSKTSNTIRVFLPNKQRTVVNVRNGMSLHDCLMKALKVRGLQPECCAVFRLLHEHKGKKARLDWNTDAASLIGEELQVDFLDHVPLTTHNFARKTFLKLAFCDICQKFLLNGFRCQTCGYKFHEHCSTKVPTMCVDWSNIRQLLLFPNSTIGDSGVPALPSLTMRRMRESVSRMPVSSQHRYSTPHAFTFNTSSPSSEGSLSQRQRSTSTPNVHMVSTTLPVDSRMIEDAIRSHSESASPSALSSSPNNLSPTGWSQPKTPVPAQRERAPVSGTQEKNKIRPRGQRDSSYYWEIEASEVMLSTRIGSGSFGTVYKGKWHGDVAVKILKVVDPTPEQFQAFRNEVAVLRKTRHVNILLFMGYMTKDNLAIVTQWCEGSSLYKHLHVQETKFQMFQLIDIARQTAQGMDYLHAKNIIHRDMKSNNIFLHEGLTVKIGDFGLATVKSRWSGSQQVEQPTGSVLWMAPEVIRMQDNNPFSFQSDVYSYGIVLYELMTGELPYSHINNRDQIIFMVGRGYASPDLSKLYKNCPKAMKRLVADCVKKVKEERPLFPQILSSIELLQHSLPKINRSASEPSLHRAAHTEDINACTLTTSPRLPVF

Compound: COc1cc2cc(Oc3ccc(NC(=O)Nc4cccc(C(F)(F)F)c4)cc3)c(C)nc2cc1OC
- GI50 [1]: 1.56 µM
- TGI [1]: 3.91 µM
- CC50 [1, 33]: > 50 µM
- GI50 [2]: 1.05 µM
- LC50 (lethal concentration, 50% cell kill) [2]: > 50 µM
- TGI [2]: 2.96 µM
- GI50 [3]: 1.17 µM
- TGI [3]: 3.33 µM
- CC50 [3, 33]: 32 µM
- GI50 [4]: 1.48 µM
- LC50 (concentration killing 50% of cells) [4]: > 50 µM
- TGI [4]: 6.46 µM
- GI50 [5]: 2.33 µM
- TGI [5]: 8.44 µM
- CC50 [5, 33]: 24.1 µM
- GI50 [6]: 1.8 µM
- TGI [6]: 5.6 µM
- CC50 [6, 33]: 28.8 µM
- GI50 [7]: 2.59 µM
- TGI [7]: > 50 µM
- CC50 [7, 33]: > 50 µM
- GI50 [8]: 1.85 µM
- LC50 (lethal concentration, 50% net cell kill) [8]: > 50 µM
- TGI [8]: 22.2 µM
- GI50 [9]: 2.05 µM
- TGI [9]: 6.26 µM
- CC50 [9, 33]: 17.8 µM
- GI50 [10]: 1.42 µM
- TGI [10]: 5.92 µM
- CC50 [10, 33]: 36.1 µM
- GI50 [11]: 2.19 µM
- TGI [11]: 15 µM
- CC50 [11, 33]: > 50 µM
- GI50 [12]: 1.17 µM
- TGI [12]: 6.18 µM
- CC50 [12, 33]: > 50 µM
- GI50 [13]: 1.84 µM
- TGI [13]: 6.61 µM
- CC50 [13, 33]: 18.3 µM
- GI50 [14]: 1.71 µM
- TGI [14]: 4.9 µM
- CC50 [14, 33]: 33.8 µM
- GI50 [15]: 1.67 µM
- TGI [15]: 7.67 µM
- CC50 [15, 33]: 35.6 µM
- GI50 [16]: 1.28 µM
- TGI [16]: 2.87 µM
- CC50 [16, 33]: 9.93 µM
- GI50 [17]: 1.08 µM
- TGI [17]: 2.66 µM
- CC50 [17, 33]: 8.47 µM
- GI50 [18]: 1.84 µM
- TGI [18]: 10.9 µM
- CC50 [18, 33]: > 50 µM
- GI50 [19]: 2.04 µM
- TGI [19]: 8.07 µM
- CC50 [19, 33]: 39.9 µM
- GI50 [20]: 2.3 µM
- TGI [20]: 9.7 µM
- CC50 [20, 33]: 36 µM
- GI50 [21]: 1.74 µM
- TGI [21]: 9.24 µM
- CC50 [21, 33]: > 50 µM
- GI50 [22]: 1.29 µM
- TGI [22]: 4.95 µM
- CC50 [22, 33]: 29.7 µM
- GI50 [23]: 1.64 µM
- TGI [23]: 7.71 µM
- CC50 [23, 33]: > 50 µM
- GI50 [24]: 1.63 µM
- TGI [24]: 4.97 µM
- CC50 [24, 33]: 26.3 µM
- GI50 [25]: 2.06 µM
- TGI [25]: 16.3 µM
- CC50 [25, 33]: > 50 µM
- GI50 [26]: 1.98 µM
- TGI [26]: 10.8 µM
- CC50 [26, 33]: > 50 µM
- GI50 [27]: 1.39 µM
- TGI [27]: 5.49 µM
- CC50 [27, 33]: 30.4 µM
- GI50 [28]: 2.78 µM
- TGI [28]: 15.8 µM
- CC50 [28, 33]: > 50 µM
- GI50 [29]: 1.44 µM
- TGI [29]: 4.22 µM
- CC50 [29, 33]: > 50 µM
- GI50 [30]: 1.43 µM
- TGI [30]: 6.18 µM
- CC50 [30, 33]: 28.2 µM
- GI50 [31]: 1.61 µM
- TGI [31]: 6.68 µM
- CC50 [31, 33]: > 50 µM
- inhibition [32]: 99.2%
